# Reference: patent publication US20250261636A1, “QUATERNARY AMMONIUM SANITIZING COMPOSITION” (ECOLAB USA INC., priority 2020, published 2025)
# Values joined by “and” are separate entries in the source; they are usually repeats but may differ in a detail not shown here. Equal values may be shown once.
# Columns and labels:
# [1] = tested on: Staphylococcus aureus ATCC 6538; test: AOAC Method 960.09 Germicidal and Detergent Sanitizing Action of Disinfectants, food contact sanitizing suspension test; format: cell-based; details: 30 ppm, pH 5, 120° F.
# Description: (§1) The microbial efficacy of the multipurpose sanitizing composition was evaluated for food contact applications. The purpose of the testing is to determine the efficacy of compositions used for sanitizing food contact surfaces, which in the evaluations were pre-cleaned, non-porous surfaces using AOAC Method 960.09 Germicidal and Detergent Sanitizing Action of Disinfectants. […] The test organisms included Staphylococcus aureus ATCC 6538 and Escherichia coli ATCC 11229.
# (§2) The pH was adjusted by use of a polycarboxylic acid (unless otherwise noted, such as the polycarboxylate citrate tested at pH 8). In this screening test pH 9, 8, 7, 5, 4, and 3 were tested. “NT” indicates a condition was “Not Tested.”
# [2] = tested on: Escherichia coli ATCC 11229; test: as above; format: cell-based; details: for Log Reduction: per replicate
# Description: as §1, §2
structure (smiles),measurement,setting,value
"CCCCCCCCCC[N+](C)(C)CCCCCCCCCC.[Cl-] [Bardac 2250, didecyl dimethyl ammonium chloride]",log reduction S. aureus (ATCC 6538),[1],6.88 log
same,Average Log Reduction,"[2]; 30 ppm, pH 5, 120° F.",6.83 log
same,Average Log Reduction,"[2]; 30 ppm, pH 7, 120° F.",3.33 log
same,CFU - Dilution 1E−01,"[2]; 30 ppm, pH 7, 120° F.",TNTC
same,CFU - Dilution 1E−02,"[2]; 30 ppm, pH 7, 120° F.",TNTC
same,CFU/mL,"[2]; 30 ppm, pH 7, 120° F.",3.00E+04 CFU/mL
same,Log Reduction,"[2]; 30 ppm, pH 7, 120° F.",3.33 log
same,Average Log Reduction,"[2]; 30 ppm, pH 9, 120° F.",3.33 log
same,CFU - Dilution 1E−01,"[2]; 30 ppm, pH 9, 120° F.",TNTC
same,CFU - Dilution 1E−02,"[2]; 30 ppm, pH 9, 120° F.",TNTC
same,CFU/mL,"[2]; 30 ppm, pH 9, 120° F.",3.00E+04 CFU/mL
same,Log,"[2]; 30 ppm, pH 9, 120° F.",4.48
same,Log Reduction,"[2]; 30 ppm, pH 9, 120° F.",3.33 log
same,Average Log Reduction,"[2]; 40 ppm, pH 7, 120° F.",5.02 log
same,Average Log Reduction,"[2]; 40 ppm, pH 9, 120° F.",4.63 log
same,CFU - Dilution 1E−01,"[2]; 40 ppm, pH 9, 120° F.",192 CFU and 120 CFU
same,CFU - Dilution 1E−02,"[2]; 40 ppm, pH 9, 120° F.",12 CFU and 14 CFU
same,CFU/mL,"[2]; 40 ppm, pH 9, 120° F.",1.85E+03 CFU/mL and 1.22E+03 CFU/mL
same,Log,"[2]; 40 ppm, pH 9, 120° F.",3.27 and 3.09
same,Log Reduction,"[2]; 40 ppm, pH 9, 120° F.",4.54 log and 4.72 log
same,log reduction E. coli (ATCC 11229),"[2]; 50 ppm, pH 7, 120° F.",6.71 log
"CCCCCCCC[N+](C)(C)CCCCCCCC.[Cl-] [Bardac LF, dioctyl dimethyl ammonium chloride]",Average Log Reduction,"[2]; 30 ppm, pH 5, 120° F.",3.06 log
same,CFU - Dilution 1E−01,"[2]; 30 ppm, pH 5, 120° F.",TNTC
same,CFU - Dilution 1E−02,"[2]; 30 ppm, pH 5, 120° F.",TNTC
same,CFU/mL,"[2]; 30 ppm, pH 5, 120° F.",3.0E+04 CFU/mL
same,Log,"[2]; 30 ppm, pH 5, 120° F.",4.48
same,Log Reduction,"[2]; 30 ppm, pH 5, 120° F.",3.06 log
same,Average Log Reduction,"[2]; 30 ppm, pH 7, 120° F.",3.06 log
same,log reduction E. coli (ATCC 11229),"[2]; 60 ppm, pH 5, 120° F.",3.06 log
same,log reduction E. coli (ATCC 11229),"[2]; 60 ppm, pH 7, 120° F.",3.06 log
same,log reduction E. coli (ATCC 11229),"[2]; 90 ppm, pH 5, 120° F.",3.06 log
same,log reduction E. coli (ATCC 11229),"[2]; 90 ppm, pH 7, 120° F.",3.06 log
